Results: US20220218664A1, “DRUG AND METHOD FOR TREATING OR PREVENTING COMPLICATIONS FROM DIABETES, USING SAID DRUG” (TMS Co., Ltd., priority 2019, published 2022)
Values joined by “and” are separate entries in the source; they are usually repeats but may differ in a detail not shown here. Equal entries are not always repeated.

Assays:
Format in all cases: in vivo, C57BL/6J male mice
[1] = tested on: streptozotocin-induced diabetic mice; assay: Blood glucose level (BS) in streptozotocin-induced diabetic mice; details: 30 mg/kg i.p. once a day
Description: (§1) 9-week-old C57BL/6J male mice were purchased and familiarized with an animal facility for 1 week. 200 mg/kg of streptozotocin (streptozotocin; STZ) was administered […] into the peritoneal cavity of 10-week-old mice to prepare streptozotocin-induced diabetic mice (hereinafter also referred to as “STZ administration week 0”). One week after the administration of streptozotocin, blood was collected from the tail vein of the mice, and the blood glucose level (BS) was measured using an automatic blood glucose measuring device (product name: Medisafe (trademark) Mini GR-102, made by Terumo (Co)). Mice having a blood glucose level of 400 mg/dL or more were determined to be diabetic mice.
(§2) The SMTP-44D groups, the edaravone group, and the pregabalin group were administered SMTP-44D (0.3 mg/kg, 3 mg/kg, or 30 mg/kg doses, respectively), edaravone (10 mg/kg dose), or pregabalin (10 mg/kg dose) into the peritoneal cavity once a day for 3 consecutive weeks from the day following the first week to the fourth week after STZ administration.
For the above-mentioned STZ group, SMTP-44D groups, edaravone group, pregabalin group, and control group mice, the following measurements were conducted every week from the 0th week, which began on the day when streptozotocin (STZ) was administered, to the 4th week (that is, a total of five times). As algesia tests, the following von Frey test and hot plate test were conducted, and hind plantar blood flow, body weight (BW), and blood glucose level (BS) were measured using the above-mentioned automatic blood glucose measure device. Note, for example, the 0th week represents the 0th day. That is, the measurements were conducted on the 0th, 7th, 14th, 21st, and 28th days.

[2] = tested on: streptozotocin-induced diabetic mice; assay: Von Frey test: evaluating mechanical stimulus
Description: as §1, §2
The above-mentioned STZ group, SMTP-44D groups, edaravone group, pregabalin group, and control group mice were put in grid-like boxes, respectively, and were familiarized for one hour. After the familiarization, by using a Dynamic Plantar Aesthesiometer (tactometer) (manufactured by UGO BASILE Inc.), 1 g/s (that, pressurization increased by 1 g per second) of stimulation was imparted to the hind legs of these mice to measure mechanical thresholds (g) from the start of stimulation to the time when the mice withdrew their legs. The measurements were conducted for both hind legs three times at intervals of three minutes or longer, respectively. A mean value of three mechanical thresholds (g) was calculated for 1 mouse, and then a mean value of the 12 mice for the respective groups was found.

[3] = tested on: streptozotocin-induced diabetic mice; assay: Hind plantar blood flow (laser perfusion imager)
Description: as §1, §2
The hind plantar blood flows (perfusion unit: PU) of the above-mentioned STZ group, SMTP-44D groups, edaravone group, pregabalin group, and control group mice were measured under isoflurane anesthesia using a full-field laser perfusion imager.

[4] = tested on: streptozotocin-induced diabetic mice; assay: Thickness and G-ratio of myelin in the sciatic nerve; details: 30 mg/kg i.p. once a day, 4th week
Description: as §1, §2
The above-mentioned STZ group, SMTP-44D (30 mg/kg) group, edaravone group, pregabalin group, and control group mice in the 4th week were dissected to remove the sciatic nerves. The sciatic nerves were fixed using neutral buffered formalin and embedded using an Epon resin, and then semi-thin segments were formed and dyed using toluidine blue. The cross sections of the sciatic nerves in the respective specimens were examined using a microscope equipped with a digital camera at 400× magnification. The thickness of myelin ((diameter of axon including myelin diameter of axon)/2) and G-ratio (diameter of axon/diameter of axon including myelin) were measured.

malondialdehyde: MDA = assay: Oxidative stress (MDA, TBARS assay) in sciatic nerve; details: 30 mg/kg i.p. once a day, 4th week
Description: as §1, §2
The sciatic nerves of the above-mentioned STZ group, SMTP-44D group (30 mg/kg), edaravone group, pregabalin group, and control group mice in the 4th week were homogenized using an RIPA buffer containing a protease inhibitor cocktail. Moreover, centrifugation was conducted at 4° C. for 15 minutes at 1600 g, and the supernatant was collected and used for measuring MDA (μM) and total protein concentration (μg/mL), respectively. MDA was measured using a TBARS Assay Kit. The total protein concentration was measured using a Pierce (Trademark) BCA Protein Assay Kit. Oxidative stress levels (nmol/mg protein) were calculated from MDA (μM) and the total protein concentration (μg/mL).

TNF-α = assay: Inflammatory cytokine TNF-α in sciatic nerve (ELISA); details: 30 mg/kg i.p. once a day, 4th week
Description: as §1, §2
(§3) The sciatic nerves of the above-mentioned STZ group, SMTP-44D group (30 mg/kg), edaravone group, pregabalin group, and control group mice on the 4th week were homogenized using the RIPA buffer containing a protease inhibitor cocktail. Moreover, centrifugation was conducted at 4° C. for 15 minutes at 10,000 g, and the supernatant was collected and used for measuring TNF-α concentration (pg/mL), IL-1β concentration (pg/mL), IL-6 concentration (pg/mL), and total protein concentration (μg/mL), respectively. An ELISA assay kit was used for the TNF-α, IL-1β, and IL-6 concentrations. The total protein concentration was measured by using a Pierce (trademark) BCA Protein Assay Kit. The inflammatory cytokine level (pg/mg protein) in the total protein was calculated from the TNF-α concentration (pg/mL), IL-1β concentration (pg/mL), and IL-6 concentration (pg/mL), and total protein concentration (μg/mL).

IL-1β = assay: Inflammatory cytokine IL-1β in sciatic nerve (ELISA); details: 30 mg/kg i.p. once a day, 4th week
Description: as §1, §2, §3

IL-6 = assay: Inflammatory cytokine IL-6 in sciatic nerve (ELISA); details: 30 mg/kg i.p. once a day, 4th week
Description: as §1, §2, §3

[5] = 0.3 mg/kg i.p. once a day, 0th week (before dosing)
[6] = 0.3 mg/kg i.p. once a day, 1st week (before dosing)
[7] = 0.3 mg/kg i.p. once a day, 2nd week
[8] = 0.3 mg/kg i.p. once a day, 3rd week
[9] = 0.3 mg/kg i.p. once a day, 4th week
[10] = 3 mg/kg i.p. once a day, 0th week (before dosing)
[11] = 3 mg/kg i.p. once a day, 1st week (before dosing)
[12] = 3 mg/kg i.p. once a day, 2nd week
[13] = 3 mg/kg i.p. once a day, 3rd week
[14] = 3 mg/kg i.p. once a day, 4th week
[15] = 30 mg/kg i.p. once a day, 0th week (before dosing)
[16] = 30 mg/kg i.p. once a day, 1st week (before dosing)
[17] = 30 mg/kg i.p. once a day, 2nd week
[18] = 30 mg/kg i.p. once a day, 3rd week
[19] = 30 mg/kg i.p. once a day, 4th week

CC(C)=CCCC(C)=CCCC1(C)Oc2c(c(O)cc3c2CN(C(C(=O)O)c2ccc(O)cc2)C3=O)CC1O (stereo not shown) [SMTP-44D]
BS (blood glucose level) ([1]; 0th week (before dosing)): 203.5 ± 5.5 mg/dL | BS (blood glucose level) ([1]; 1st week (before dosing)): 535.5 ± 28.7 mg/dL | BS (blood glucose level) ([1]; 2nd week): 597.3 ± 44.8 mg/dL | BS (blood glucose level) ([1]; 3rd week): 638.7 ± 34.2 mg/dL | BS (blood glucose level) ([1]; 4th week): 580.3 ± 42.9 mg/dL | von Frey test mechanical threshold [2, 5]: 5.2 ± 0.1 g | von Frey test mechanical threshold [2, 6]: 4.1 ± 0.1 g | von Frey test mechanical threshold [2, 7]: 3.5 ± 0.2 g | von Frey test mechanical threshold [2, 8]: 3.7 ± 0.1 g | von Frey test mechanical threshold [2, 9]: 3.6 ± 0.2 g | von Frey test mechanical threshold [2, 10]: 4.9 ± 0.2 g | von Frey test mechanical threshold [2, 11]: 4.2 ± 0.1 g | von Frey test mechanical threshold [2, 12]: 4.0±0.1 g and 4.0 ± 0.1 ##− g | von Frey test mechanical threshold [2, 13]: 3.9 ± 0.2 g | von Frey test mechanical threshold [2, 14]: 4.0 ± 0.1 g | von Frey test mechanical threshold [2, 15]: 4.9 ± 0.1 g | von Frey test mechanical threshold [2, 16]: 3.9 ± 0.2 g | von Frey test mechanical threshold [2, 17]: 5.4 ± 0.1 g | von Frey test mechanical threshold [2, 18]: 5.3 ± 0.1 g | von Frey test mechanical threshold [2, 19]: 5.2 ± 0.1 g | Hind plantar blood flow [3, 5]: 199.8±9.8 PU | Hind plantar blood flow [3, 6]: 150.7±9.4 PU | Hind plantar blood flow [3, 7]: 152.9±8.7 PU | Hind plantar blood flow [3, 8]: 141.0±8.7 PU | Hind plantar blood flow [3, 9]: 132.3±6.6 PU | Hind plantar blood flow [3, 10]: 210.7±14.1 PU | Hind plantar blood flow [3, 11]: 154.8±12.8 PU | Hind plantar blood flow [3, 12]: 169.3±7.9 PU | Hind plantar blood flow [3, 13]: 161.3±11.8 PU | Hind plantar blood flow [3, 14]: 162.1±9.8 PU | Hind plantar blood flow [3, 15]: 201.4±6.8 PU | Hind plantar blood flow [3, 16]: 142.7±7.1 PU | Hind plantar blood flow [3, 17]: 185.0±8.4 PU | Hind plantar blood flow [3, 18]: 234.7±11.2 PU | Hind plantar blood flow [3, 19]: 214.9±12.2 PU | Thickness of myelin [4]: 1.58±0.02 μm | MDA (oxidative stress) (malondialdehyde: MDA): 1.98±0.51 nmol/mg protein | TNF-α (TNF-α): 15.22±2.51 pg/mg protein | IL-1β (IL-1β): 24.90±4.05 pg/mg protein | IL-6 (IL-6): 143.41±8.08 pg/mg protein
